Measured values reported in patent publication US20240197938A1, “ANTIMICROBIAL COMPOUNDS BASED ON GLUCOHEPTONIC ACIDS AND THEIR SALTS” (HARCROS CHEMICALS, INC., priority 2021, published 2024).
One block for each compound: values may come before it.

How the values were obtained:
[1] = Bubble pressure tensiometry (dynamic surface tension, calculated CMC); assay type: physicochemical; details: for Calculated CMC: bubble tensiometry
Description: Dynamic surface tensions of certain formulations were measured using a KRÜSS BP100 BPT Mobile bubble pressure tensiometer. Samples of the solution of Example 7 were tested by adding the test solution to a glass dish and lowering the disposable capillary tip and temperature probe into the solution. The dynamic setting was selected, and the instrument was set to collect 30 data points, the bubble age increasing from about 10 ms to about 30,000 ms.
Bubble tensiometry was used to calculate the Critical Micelle Concentration (CMC) value for each of the solutions.
FIG. 1 presents a comparison of the bubble age to surface tension for RM14A at CMC, sub-CMC, and super-CMC concentrations. FIG. 2 presents a comparison of the bubble age to surface tension for RM14B at CMC, sub-CMC, and super-CMC concentrations. FIG. 3 presents a comparison of the bubble age to surface tension for RM14C at CMC, sub-CMC, and super-CMC concentrations. FIG. 4 presents a comparison of the bubble age to surface tension for RM12A, RM13A, RM14A, and RM15A at super-CMC concentrations. FIG. 5 presents a comparison of the bubble age to surface tension for RM12A, RM13A, RM14A, and RM15A at CMC concentrations. FIG. 6 presents a comparison of the bubble age to surface tension for RM12A, RM13A, RM14A, and RM15A at CMC concentrations. FIG. 7 presents a comparison of bubble age to surface tension for RM12A, RM13A, RM14A, and RM15A at sub-CMC concentrations.

[2] = Conductivity testing (calculated CMC); assay type: physicochemical; details: for Calculated CMC, All Points: all data points; for Calculated CMC, Average: average of outer, inner, all points; for Calculated CMC, Inner Points: inner data points; for Calculated CMC, Outer Points: outer data points
Description: Conductivities were measured using a VWR 23609-216 Pure H2O Tester conductivity meter. The meter probe was submerged into the test solution and swirled gently. Once the meter settled, the value was recorded.
The conductivity of the solutions of Example 7 were tested at dilutions ranging from 0.1 M to 0.001 M. The data was plotted on a logarithmic scale and analyzed in the style of Heard and Ashworth. For each sample, three graphs were reported and fitted with a trend curve: outer data points, inner data points, all data points. […] An average CMC value was determined from the three trend samples (outer data points, inner data points, all data points) in order to more accuracy predict the CMC value.
LINEST was utilized to determine the slope and intercept for each line, and a combination of INTERCEPT and SLOPE was used to determine the intersection of the two fitted lines. The Critical Micelle Concentration (CMC) was determined for each of these plots by the intercept of the two lines. Set forth below in Table 5 is the calculated CMC for each graph and the average CMC.

[3] = system: Staphylococcus aureus; experiment: ASTM E2315-16 Time-Kill Procedure; assay type: cell-based; details: 30 seconds
Description: (§1) Select compounds were tested for antimicrobial activity using ASTM method […]-16 (Standard Guide for Assessment of Antimicrobial Activity using a Time-Kill Procedure). Six microbes were tested: Candida albicans, Staphylococcus aureus, Staphylococcus epidermidis. Escherichia coli, Salmonella abony, and Listeria monocytogenes. Four chlorhexidine salts were tested: chlorhexidine di-α-glucoheptonate (Sample G), chlorhexidine di-β73-glucoheptonate (Sample H), chlorhexidine digluconate (Sample I), and chlorhexidine diacetate (Sample P). Both chlorhexidine diglucoheptonate salts were prepared at a 2:1 molar ratio of glucoheptonic acid to chlorhexidine. Dilutions of each salt were prepared using sterile water (20-30 ppm hardness), to achieve the desired wt. % concentration. Two glucoheptonic acids were evaluated for antimicrobial activity against the same six microbes as Example 13. Sample L was α-glucoheptonic acid. Sample M was β73-glucoheptonic acid. Benzalkonium salts were also tested using the same procedure as set forth in Example 13. The samples were benzalkonium chloride (C12-C16) (Sample C), benzalkonium chloride (C12-C14) (Sample D), benzalkonium chloride in combination with a stoichiometric amount of α-glucoheptonate (Sample F), and benzalkonium chloride in combination with a molar excess of α-glucoheptonate (Sample N). Sample F was prepared by mixing and extensively heating a stoichiometric quantity (1:1) of sodium α-glucoheptonate with benzalkonium chloride, typified by the C12-14 alkyl chain. Sample N was prepared by simply blending benzalkonium chloride, typified by the C12-16 chain, with a molar excess of sodium α-glucoheptonate (1.6:1). Both Samples F and N contain sodium chloride.

[4] = system: Candida albicans; experiment: ASTM E2315-16 Time-Kill Procedure; assay type: cell-based; details: 30 seconds
Description: as §1

[5] = system: Staphylococcus epidermidis; experiment: ASTM E2315-16 Time-Kill Procedure; assay type: cell-based; details: 30 seconds
Description: as §1

[6] = system: Salmonella abony; experiment: ASTM E2315-16 Time-Kill Procedure; assay type: cell-based; details: 30 seconds
Description: as §1, with “concentration.” for “concentration. Two glucoheptonic acids were evaluated for antimicrobial activity against the same six microbes as Example 13. Sample L was α-glucoheptonic acid. Sample M was β73-glucoheptonic acid.”

[7] = system: Listeria monocytogenes; experiment: ASTM E2315-16 Time-Kill Procedure; assay type: cell-based; details: 30 seconds
Description: as §1, with “concentration.” for “concentration. Two glucoheptonic acids were evaluated for antimicrobial activity against the same six microbes as Example 13. Sample L was α-glucoheptonic acid. Sample M was β73-glucoheptonic acid.”

[8] = system: Escherichia coli; experiment: ASTM E2315-16 Time-Kill Procedure; assay type: cell-based; details: 30 seconds
Description: as §1, with “concentration.” for “concentration. Two glucoheptonic acids were evaluated for antimicrobial activity against the same six microbes as Example 13. Sample L was α-glucoheptonic acid. Sample M was β73-glucoheptonic acid.”

[9] = system: all microbes (Candida albicans, Staphylococcus aureus, Staphylococcus epidermidis, Escherichia coli, Salmonella abony, Listeria monocytogenes); experiment: ASTM E2315-16 Time-Kill Procedure, average across all microbes; assay type: cell-based; details: for Log Reduction, Average, all microbes: 30 seconds; for average Log Reduction (LR) in microbial population across all microbes: 10 minutes
Description: Select compounds were tested for antimicrobial activity using ASTM method […]-16 (Standard Guide for Assessment of Antimicrobial Activity using a Time-Kill Procedure). Six microbes were tested: Candida albicans, Staphylococcus aureus, Staphylococcus epidermidis. Escherichia coli, Salmonella abony, and Listeria monocytogenes. Four chlorhexidine salts were tested: chlorhexidine di-α-glucoheptonate (Sample G), chlorhexidine di-β73-glucoheptonate (Sample H), chlorhexidine digluconate (Sample I), and chlorhexidine diacetate (Sample P). Both chlorhexidine diglucoheptonate salts were prepared at a 2:1 molar ratio of glucoheptonic acid to chlorhexidine. Dilutions of each salt were prepared using sterile water (20-30 ppm hardness), to achieve the desired wt. % concentration. Samples G, H, I, and P were also tested at a concentration of 0.60 wt % active and evaluated for the average Log Reduction in microbial population at 10 minutes, across all microbes. A further test was conducted at a concentration of 1.0 wt % active and evaluated for the average Log Reduction in microbial population at 10 minutes, across all microbes. Benzalkonium salts were also tested using the same procedure as set forth in Example 13. The samples were benzalkonium chloride (C12-C16) (Sample C), benzalkonium chloride (C12-C14) (Sample D), benzalkonium chloride in combination with a stoichiometric amount of α-glucoheptonate (Sample F), and benzalkonium chloride in combination with a molar excess of α-glucoheptonate (Sample N). Sample F was prepared by mixing and extensively heating a stoichiometric quantity (1:1) of sodium α-glucoheptonate with benzalkonium chloride, typified by the C12-14 alkyl chain. Sample N was prepared by simply blending benzalkonium chloride, typified by the C12-16 chain, with a molar excess of sodium α-glucoheptonate (1.6:1). Both Samples F and N contain sodium chloride. A further antimicrobial test was conducted to determine the log reduction at 10 minutes. Samples C, D, F, and N are as defined above.

Calculated CMC [1]: 0.0167 M
Calculated CMC, All Points [2]: 0.0132 M
Calculated CMC, Average [2]: 0.0132 M
Calculated CMC, Inner Points [2]: 0.0152 M
Calculated CMC, Outer Points [2]: 0.0113 M
Compound: N=C(NCCCCCCNC(=N)NC(=N)Nc1ccc(Cl)cc1)NC(=N)Nc1ccc(Cl)cc1.O=C(O)C(O)C(O)C(O)C(O)C(O)CO.O=C(O)C(O)C(O)C(O)C(O)C(O)CO [RM14B, Chlorhexidine di-β73-glucoheptonate]

Calculated CMC [1]: 0.0166 M
Calculated CMC, All Points [2]: 0.0131 M
Calculated CMC, Average [2]: 0.0133 M
Calculated CMC, Inner Points [2]: 0.0156 M
Calculated CMC, Outer Points [2]: 0.0111 M
Compound: N=C(NCCCCCCNC(=N)NC(=N)Nc1ccc(Cl)cc1)NC(=N)Nc1ccc(Cl)cc1.O=C(O)C(O)C(O)C(O)C(O)C(O)CO.O=C(O)C(O)C(O)C(O)C(O)C(O)CO [RM14C, Chlorhexidine di-β73-glucoheptonate]

Calculated CMC [1]: 0.0173 M
Calculated CMC, All Points [2]: 0.0133 M
Calculated CMC, Average [2]: 0.0133 M
Calculated CMC, Inner Points [2]: 0.0154 M
Calculated CMC, Outer Points [2]: 0.0113 M
Compound: N=C(NCCCCCCNC(=N)NC(=N)Nc1ccc(Cl)cc1)NC(=N)Nc1ccc(Cl)cc1.O=C(O)C(O)C(O)C(O)C(O)C(O)CO.O=C(O)C(O)C(O)C(O)C(O)C(O)CO [RM15A, Chlorhexidine di-β81-glucoheptonate]

More lines, now with the values behind:

Compound: N=C(NCCCCCCNC(=N)NC(=N)Nc1ccc(Cl)cc1)NC(=N)Nc1ccc(Cl)cc1.O=C(O)C(O)C(O)C(O)C(O)C(O)CO.O=C(O)C(O)C(O)C(O)C(O)C(O)CO [RM14A, Chlorhexidine di-β73-glucoheptonate]
Calculated CMC [1]: 0.0168 M
Calculated CMC, All Points [2]: 0.0130 M
Calculated CMC, Average [2]: 0.0126 M
Calculated CMC, Inner Points [2]: 0.0135 M
Calculated CMC, Outer Points [2]: 0.0113 M

Compound: N=C(NCCCCCCNC(=N)NC(=N)Nc1ccc(Cl)cc1)NC(=N)Nc1ccc(Cl)cc1.O=C(O)C(O)C(O)C(O)C(O)C(O)CO.O=C(O)C(O)C(O)C(O)C(O)C(O)CO [Sample H, chlorhexidine di-β73-glucoheptonate]
surface tension versus bubble age (rate and magnitude of reduction) ([1]; sub-CMC, CMC and super-CMC concentrations, FIGS. 1-7): fall more rapidly and to a lower value than either the di-α-glucoheptonate or the comparative digluconate salt
Log Reduction ([3]; 0.20% (wt. %)): 0.76
Log Reduction ([3]; 0.60% (wt. %)): 3.19
Log Reduction ([3]; 1.00% (wt. %)): 4.33
Log Reduction ([4]; 0.20% (wt. %)): 4.26
Log Reduction ([4]; 0.60% (wt. %)): 4.56
Log Reduction ([4]; 1.00% (wt. %)): 4.51
Log Reduction ([5]; 0.20% (wt. %)): 1.47
Log Reduction ([5]; 0.60% (wt. %)): 2.65
Log Reduction ([5]; 1.00% (wt. %)): 3.75
Log Reduction ([6]; 0.20% (wt. %)): 3.14
Log Reduction ([6]; 0.60% (wt. %)): 3.26
Log Reduction ([6]; 1.00% (wt. %)): 3.44
Log Reduction ([7]; 0.20% (wt. %)): 1.57
Log Reduction ([7]; 0.60% (wt. %)): 4.99
Log Reduction ([7]; 1.00% (wt. %)): 5.27
Log Reduction ([8]; 0.20% (wt. %)): 2.39
Log Reduction ([8]; 0.60% (wt. %)): 2.87
Log Reduction ([8]; 1.00% (wt. %)): 3.77
Log Reduction, Average, all microbes ([9]; 0.20% (wt. %)): 2.27
Log Reduction, Average, all microbes ([9]; 0.60% (wt. %)): 3.59
Log Reduction, Average, all microbes ([9]; 1.00% (wt. %)): 4.18
average Log Reduction (LR) in microbial population across all microbes ([9]; 0.60 wt % active): 5.25
average Log Reduction (LR) in microbial population across all microbes ([9]; 1.0 wt % active): 5.51
performance in the Time-Kill Test ([9]; at lower concentrations): better performance than the di-α-glucoheptonate salt
